≈ marks a conversion by molar mass, not a printed value.
Key:
[1] = system: vancomycin-resistant enterococci; test: broth micro-dilution, mean geometric MIC; format: cell-based, Enterococcus faecium and Enterococcus faecalis; conditions: enterococci, 24-hour incubation
[2] = system: Entercoccus faecium 180-1; test: broth micro-dilution MIC; format: cell-based
Method: (§1) The MIC's were determined using a standard broth micro-dilution assay.

[3] = system: Staphylococcus aureus X778; test: broth micro-dilution MIC; format: cell-based
Method: as §1

[4] = system: Staphylococcus aureus SA1199A; test: broth micro-dilution MIC; format: cell-based
Method: as §1

Entercoccus faecium 276 = test: broth micro-dilution MIC; format: cell-based
Method: as §1

[5] = system: Staphylococcus aureus 446; test: broth micro-dilution MIC; format: cell-based
Method: as §1

[6] = system: Staphylococcus aureus 491; test: broth micro-dilution MIC; format: cell-based
Method: as §1

[7] = system: Staphylococcus aureus 489; test: broth micro-dilution MIC; format: cell-based
Method: as §1

[8] = system: Staphylococcus aureus SA1199; test: broth micro-dilution MIC; format: cell-based
Method: as §1

[9] = system: Staphylococcus aureus 447; test: broth micro-dilution MIC; format: cell-based
Method: as §1

[10] = system: Streptococcus pyogenes C203; test: broth micro-dilution MIC; format: cell-based
Method: as §1

[11] = system: Staphylococcus aureus X400; test: broth micro-dilution MIC; format: cell-based
Method: as §1

[12] = system: Staphylococcus aureus S13E; format: cell-based
Method: as §1

[13] = system: Staphylococcus aureus SA1199B; format: cell-based
Method: as §1

[14] = system: Staphylococcus haemolyticus 415; test: broth micro-dilution MIC; format: cell-based
Method: (§2) The formula I compounds have in vitro and in vivo activity against Gram-positive pathogenic bacteria. The MIC's were determined using a standard broth micro-dilution assay.

[15] = system: Haemophilus influenzae RD; test: broth micro-dilution MIC; format: cell-based; conditions: Haemophilus influenzae RD
Method: as §2

Entercoccus faecium 2041 = test: broth micro-dilution MIC; format: cell-based; conditions: Entercoccus faecium 2041
Method: as §2

[16] = system: Enterococcus gallinarum 245; test: broth micro-dilution MIC; format: cell-based; conditions: Enterococcus gallinarum 245
Method: as §2

[17] = system: Streptococcus pneumoniae P1; test: broth micro-dilution MIC; format: cell-based
Method: as §2

Entercoccus faecium 180 = test: broth micro-dilution MIC; format: cell-based; conditions: Entercoccus faecium 180
Method: as §2

[18] = system: Staphylococcus haemolyticus 105; test: broth micro-dilution MIC; format: cell-based
Method: as §2

[19] = system: Staphylococcus epidermidis 270; test: broth micro-dilution MIC; format: cell-based
Method: as §2

[20] = system: vancomycin-susceptible enterococci; test: broth micro-dilution, mean geometric MIC; format: cell-based, Enterococcus faecium and Enterococcus faecalis; conditions: enterococci, 24-hour incubation

Row | SMILES | mean geometric MIC, Vancomycin Resistant Strains [1] [µg/mL] | MIC [2] [µg/mL] | MIC [3] [µg/mL] | MIC [4] [µg/mL] | MIC (Entercoccus faecium 276) [µg/mL] | MIC [5] [µg/mL] | MIC [6] [µg/mL] | MIC [7] [µg/mL] | MIC [8] [µg/mL] | MIC [9] [µg/mL] | MIC [10] [µg/mL] | MIC [11] [µg/mL] | MIC [12] [µg/mL] | MIC [13] [µg/mL] | MIC [14] [µg/mL] | MIC [15] [µg/mL] | MIC (Entercoccus faecium 2041) [µg/mL] | MIC [16] [µg/mL] | MIC [17] [µg/mL] | MIC (Entercoccus faecium 180) [µg/mL] | other results
1 | CNC(CC(C)C)C(=O)NC1C(=O)NC(CC(N)=O)C(=O)NC2C(=O)NC3C(=O)NC(C(=O)NC(C(=O)O)c4cc(O)cc(O)c4-c4cc3ccc4O)C(OC3CC(C)(N)C(O)C(C)O3)c3ccc(c(Cl)c3)Oc3cc2cc(c3OC2OC(CO)C(O)C(O)C2OC2CC(C)(NCc3c4ccccc4c(C)c4ccccc34)C(O)C(C)O2)Oc2ccc(cc2Cl)C1O (stereo not shown) [Compound 17] | 9.5 | ≤ 0.06 | 0.5 (≈ 0.278 µM) | ≤ 0.06 | 0.5 (≈ 0.278 µM) | 2 (≈ 1.11 µM) | 2 (≈ 1.11 µM) | 1 (≈ 0.557 µM) | 4 (≈ 2.23 µM) | 8 (≈ 4.45 µM) | ≤ 0.06 | 0.5 (≈ 0.278 µM) | 1 (≈ 0.557 µM) | 1 (≈ 0.557 µM) | 8 (≈ 4.45 µM) | 32 (≈ 17.8 µM) | 0.25 (≈ 0.139 µM) | 0.5 (≈ 0.278 µM) | ≤ 0.06 | 2 (≈ 1.11 µM) | MIC [18]: 8 µg/mL (≈ 4.45 µM); MIC [19]: 4 µg/mL (≈ 2.23 µM); mean geometric MIC, Vancomycin Sensitive Strains [20]: 0.38 µg/mL
2 | CNC(CC(C)C)C(=O)NC1C(=O)NC(CC(N)=O)C(=O)NC2C(=O)NC3C(=O)NC(C(=O)NC(C(=O)O)c4cc(O)cc(O)c4-c4cc3ccc4O)C(OC3CC(C)(N)C(O)C(C)O3)c3ccc(c(Cl)c3)Oc3cc2cc(c3OC2OC(CO)C(O)C(O)C2OC2CC(C)(NCc3c4c(cc5ccccc35)CCCC4)C(O)C(C)O2)Oc2ccc(cc2Cl)C1O (stereo not shown) [Compound 156] | 5.7 | ≤ 0.06 | 1 (≈ 0.56 µM) | ≤ 0.06 | 2 (≈ 1.12 µM) | 2 (≈ 1.12 µM) | 1 (≈ 0.56 µM) | 1 (≈ 0.56 µM) | 1 (≈ 0.56 µM) | 1 (≈ 0.56 µM) | ≤ 0.06 | 2 (≈ 1.12 µM) | 1 (≈ 0.56 µM) | 0.5 (≈ 0.28 µM) | 2 (≈ 1.12 µM) | 2 (≈ 1.12 µM) | 0.5 (≈ 0.28 µM) | 2 (≈ 1.12 µM) | ≤ 0.06 | 1 (≈ 0.56 µM) | MIC [18]: 4 µg/mL (≈ 2.24 µM); MIC [19]: 1 µg/mL (≈ 0.56 µM); mean geometric MIC, Vancomycin Sensitive Strains [20]: 0.17 µg/mL
3 | CNC(CC(C)C)C(=O)NC1C(=O)NC(CC(N)=O)C(=O)NC2C(=O)NC3C(=O)NC(C(=O)NC(C(=O)O)c4cc(O)cc(O)c4-c4cc3ccc4O)C(OC3CC(C)(N)C(O)C(C)O3)c3ccc(c(Cl)c3)Oc3cc2cc(c3OC2OC(CO)C(O)C(O)C2OC2CC(C)(NCCCCCCCCCCc3ccccc3)C(O)C(C)O2)Oc2ccc(cc2Cl)C1O (stereo not shown) [Compound 197] | 1.2 | 0.25 (≈ 0.138 µM) | 2 (≈ 1.11 µM) | 1 (≈ 0.553 µM) | 1 (≈ 0.553 µM) | 1 (≈ 0.553 µM) | 1 (≈ 0.553 µM) | 2 (≈ 1.11 µM) | 2 (≈ 1.11 µM) | 2 (≈ 1.11 µM) | ≤ 0.06 | 2 (≈ 1.11 µM) | 2 (≈ 1.11 µM) | 2 (≈ 1.11 µM) | 4 (≈ 2.21 µM) | 32 (≈ 17.7 µM) | 0.25 (≈ 0.138 µM) | 4 (≈ 2.21 µM) | ≤ 0.06 | 0.5 (≈ 0.276 µM) | MIC [18]: 1 µg/mL (≈ 0.553 µM); MIC [19]: 0.5 µg/mL (≈ 0.276 µM); mean geometric MIC, Vancomycin Sensitive Strains [20]: 0.16 µg/mL
4 | CNC(CC(C)C)C(=O)NC1C(=O)NC(CC(N)=O)C(=O)NC2C(=O)NC3C(=O)NC(C(=O)NC(C(=O)O)c4cc(O)cc(O)c4-c4cc3ccc4O)C(OC3CC(C)(N)C(O)C(C)O3)c3ccc(c(Cl)c3)Oc3cc2cc(c3OC2OC(CO)C(O)C(O)C2OC2CC(C)(NCCCCc3ccc(OC)cc3)C(O)C(C)O2)Oc2ccc(cc2Cl)C1O (stereo not shown) [Compound 172] | 3.4 | ≤ 0.06 | 2 (≈ 1.14 µM) | ≤ 0.06 | 0.125 (≈ 0.0712 µM) | 4 (≈ 2.28 µM) | 0.5 (≈ 0.285 µM) | 0.5 (≈ 0.285 µM) | 1 (≈ 0.57 µM) | 0.5 (≈ 0.285 µM) | ≤ 0.06 | 0.5 (≈ 0.285 µM) | ≤ 0.06 | ≤ 0.06 | 2 (≈ 1.14 µM) | 32 (≈ 18.2 µM) | ≤ 0.06 | 2 (≈ 1.14 µM) | ≤ 0.06 | 0.5 (≈ 0.285 µM) | MIC [18]: 0.25 µg/mL (≈ 0.142 µM); MIC [19]: 0.5 µg/mL (≈ 0.285 µM); mean geometric MIC, Vancomycin Sensitive Strains [20]: 0.13 µg/mL
5 | CNC(CC(C)C)C(=O)NC1C(=O)NC(CC(N)=O)C(=O)NC2C(=O)NC3C(=O)NC(C(=O)NC(C(=O)O)c4cc(O)cc(O)c4-c4cc3ccc4O)C(OC3CC(C)(N)C(O)C(C)O3)c3ccc(c(Cl)c3)Oc3cc2cc(c3OC2OC(CO)C(O)C(O)C2OC2CC(C)(NCc3ccc(OCCCCCCc4ccccc4)cc3)C(O)C(C)O2)Oc2ccc(cc2Cl)C1O (stereo not shown) [Compound 219] | 0.71 | 1 (≈ 0.538 µM) | 8 (≈ 4.3 µM) | 1 (≈ 0.538 µM) | 2 (≈ 1.08 µM) | 8 (≈ 4.3 µM) | 4 (≈ 2.15 µM) | 8 (≈ 4.3 µM) | 4 (≈ 2.15 µM) | 8 (≈ 4.3 µM) | ≤ 0.06 | 8 (≈ 4.3 µM) | 8 (≈ 4.3 µM) | 8 (≈ 4.3 µM) | 2 (≈ 1.08 µM) | 32 (≈ 17.2 µM) | 2 (≈ 1.08 µM) | 2 (≈ 1.08 µM) | ≤ 0.06 | 1 (≈ 0.538 µM) | MIC [18]: 2 µg/mL (≈ 1.08 µM); MIC [19]: 4 µg/mL (≈ 2.15 µM); mean geometric MIC, Vancomycin Sensitive Strains [20]: 0.044 µg/mL
